Results on two molecules are retold here after US7176192B2, “Method for treating patients for radiation exposure” (BioNumerik Pharmaceuticals, Inc., priority 2001, dated 2007).

The test system of one series is humans. Put plainly: administration of dimesna to humans, tolerability. It counts as in vivo. The note with it: doses exceeding 15 g/m^2. The text has this:
(§1) Mesna and dimesna, as well as some analogues of these compounds, have excellent toxicity profiles in mammalian species. However, it is clear from our earlier discoveries that dimesna has a much lower degree of toxicity relative to mesna; this lower degree of toxicity for dimesna imparts additional therapeutic value to this invention for radiation therapy since it is contemplated that chronic or high doses of dimesna will be needed in some circumstances in order to provide adequate prophylaxis for radiation toxicity as well as for treatment of acute or chronic radiation toxicity.

A further series relates to dogs. Put plainly: intravenous administration of dimesna to dogs, tolerability. It counts as in vivo. Conditions: intravenously, doses higher than 3750 mg/kg.
Text: as §1

The test system of another series is mice. As to the kind of experiment: intravenous administration of dimesna to mice, tolerability. It counts as in vivo. Conditions: intravenously, doses higher than 3750 mg/kg.
Text: as §1

For series [1] the following is noted: accepted value, species not stated; cited from earlier work.

For `O=S(=O)([O-])CCSSCCS(=O)(=O)[O-].[Na+].[Na+]` [Dimesna, disodium 2,2′-dithiobis ethane sulfonate], the adverse effects result with humans is listed as “no major adverse effects”; with dogs, “no adverse effects”; in the series with mice, “no adverse effects”.

Turning to `[Cl-].[Na+]` [common table salt], in series [1], the “oral LD50” value is recorded as 3750 mg/kg.
